US4062948A, “Dihydromocimycin antibiotics” (Gist-Brocades N.V., priority 1970, dated 1977)
Values after ≈ are worked out from the molar mass of the structure shown.

Assays:
Assay in all cases: micro liquid serial dilution test (Table II)
Type in all cases: cell-based
Vibrio coli 1846 = conditions: Campylobacter coli, 18 hours at 30° C or 37° C, read-out: Minimum inhibitory concentration
Procedure: (§1) The microbiological activity of the antibiotic preparation towards a number of micoorganisms has been determined by a micro liquid serial dilution test:
(§2) A stock solution of the test compounds at a concentration of 200 μg/ml in 0.05 molar phosphate buffer at a pH of 6.5 was prepared and serial 1:1 dilutions were made with a liquid medium inoculated with the test organism, using conventional glass spot-test plates. The plates were incubated 18 hours at 30° C or 37° C. The minimum inhibitory concentration (MIC) which is the smallest concentration of compound completely inhibiting the growth of the test organism is read and calculated in μg/ml.

[1] = test system: Pasteurella multocida A 723; conditions: A723, 18 hours at 30° C or 37° C, read-out: Minimum inhibitory concentration
Procedure: as §1, §2

[2] = test system: Bacillus subtilis ATCC 6633; conditions: ATCC6633, 18 hours at 30° C or 37° C, read-out: Minimum inhibitory concentration
Procedure: as §1, §2

[3] = test system: Actinobacillus equuli T 3; conditions: T3, 18 hours at 30° C or 37° C, read-out: Minimum inhibitory concentration
Procedure: as §1, §2

[4] = test system: Staphylococcus aureus A 321; conditions: A321, 18 hours at 30° C or 37° C, read-out: Minimum inhibitory concentration
Procedure: as §1, §2

[5] = test system: Streptococcus faecalis A 306; conditions: Enterococcus faecalis, A306; 18 hours at 30° C or 37° C; read-out: Minimum inhibitory concentration
Procedure: as §1, §2

Proteus rettgeri A 821 = conditions: Providencia rettgeri, A821; 18 hours at 30° C or 37° C; read-out: Minimum inhibitory concentration
Procedure: as §1, §2

Proteus mirabilis L 93 = conditions: L93, 18 hours at 30° C or 37° C, read-out: Minimum inhibitory concentration
Procedure: as §1, §2

[6] = test system: Lactobacillus acidophilus D 218; conditions: D218, 18 hours at 30° C or 37° C, read-out: Minimum inhibitory concentration
Procedure: as §1, §2

[7] = test system: Trichophyton mentagrophytes R 177; conditions: R177, 18 hours at 30° C or 37° C, read-out: Minimum inhibitory concentration
Procedure: as §1, §2

Candida albicans A 7 = conditions: A7, 18 hours at 30° C or 37° C, read-out: Minimum inhibitory concentration
Procedure: as §1, §2

[8] = test system: Mycoplasma hyorhinus A 2230; conditions: A2230, 18 hours at 30° C or 37° C, read-out: Minimum inhibitory concentration
Procedure: as §1, §2

[9] = test system: Streptococcus faecalis L 80; conditions: Enterococcus faecalis, L80; 18 hours at 30° C or 37° C; read-out: Minimum inhibitory concentration
Procedure: as §1, §2

[10] = test system: Saccharomyces cerevisiae D 160; conditions: D160, 18 hours at 30° C or 37° C, read-out: Minimum inhibitory concentration
Procedure: as §1, §2

Erwinia caretovora W 9 = conditions: W9, 18 hours at 30° C or 37° C, read-out: Minimum inhibitory concentration
Procedure: as §1, §2

[11] = test system: Torulopsis glabrata A 420; conditions: Nakaseomyces glabratus, A420; 18 hours at 30° C or 37° C; read-out: Minimum inhibitory concentration
Procedure: as §1, §2

[12] = test system: Streptococcus agalactiae A 732; conditions: A732, 18 hours at 30° C or 37° C, read-out: Minimum inhibitory concentration
Procedure: as §1, §2

Escherichia coli M = conditions: 18 hours at 30° C or 37° C, read-out: Minimum inhibitory concentration
Procedure: as §1, §2

[13] = test system: Salmonella typhimurium R 127; conditions: Salmonella enterica, 18 hours at 30° C or 37° C, read-out: Minimum inhibitory concentration
Procedure: as §1, §2

Escherichia coli U 20 = conditions: U20, 18 hours at 30° C or 37° C, read-out: Minimum inhibitory concentration
Procedure: as §1, §2

Aspergilus niger D 184 = conditions: 18 hours at 30° C or 37° C; read-out: Minimum inhibitory concentration
Procedure: as §1, §2

Proteus mirabilis H 3 = conditions: H3, 18 hours at 30° C or 37° C, read-out: Minimum inhibitory concentration
Procedure: as §1, §2

[14] = test system: Bacillus cereus ATCC 9139; conditions: ATCC9139, 18 hours at 30° C or 37° C, read-out: Minimum inhibitory concentration
Procedure: as §1, §2

[15] = test system: Diplococcus pneumoniae A 188; conditions: Streptococcus pneumoniae, A188; 18 hours at 30° C or 37° C; read-out: Minimum inhibitory concentration
Procedure: as §1, §2

[16] = test system: Pseudomonas aeruginosa L 94; conditions: L94, 18 hours at 30° C or 37° C, read-out: Minimum inhibitory concentration
Procedure: as §1, §2

[17] = test system: Mycoplasma suipneumoniae A 2174; conditions: Mesomycoplasma hyopneumoniae, A2174; 18 hours at 30° C or 37° C; read-out: Minimum inhibitory concentration
Procedure: as §1, §2

[18] = test system: Escherichia coli NCTC 8196; conditions: NCTC8196, 18 hours at 30° C or 37° C, read-out: Minimum inhibitory concentration
Procedure: as §1, §2

Salmonella dublin P 43 = conditions: Salmonella enterica, P43; 18 hours at 30° C or 37° C; read-out: Minimum inhibitory concentration
Procedure: as §1, §2

[19] = test system: Mycoplasma synoviae A 2082; conditions: Mycoplasmopsis synoviae, A2082; 18 hours at 30° C or 37° C; read-out: Minimum inhibitory concentration
Procedure: as §1, §2

For `CC=CC=CC1OC(O)(C(CC)C(=O)NCC=CC=C(C)C(OC)C(C)C2OC(C=CC=CC=C(C)C(=O)c3c(O)cc[nH]c3=O)C(O)C2O)C(O)C(O)C1(C)C` (centres unmarked) [mocimycin], the MIC (Vibrio coli 1846) was 100 µg/mL (≈ 125 µM), the MIC [1] was 4 µg/mL (≈ 5.02 µM) and the MIC [2] was 50 µg/mL (≈ 62.7 µM). It also gave an MIC [3] of 1.5 µg/mL (≈ 1.88 µM), an MIC [4] of 100 µg/mL (≈ 125 µM) and an MIC [5] of 1 µg/mL (≈ 1.25 µM). It also gave an MIC (Proteus rettgeri A 821) of over 100 µg/mL, an MIC (Proteus mirabilis L 93) of 100 µg/mL (≈ 125 µM) and an MIC [6] of over 100 µg/mL. The MIC [7] was over 100 µg/mL, the MIC (Candida albicans A 7) was over 100 µg/mL and the MIC [8] was 3 µg/mL (≈ 3.76 µM). It also gave an MIC [9] of over 200 µg/mL, an MIC [10] of over 100 µg/mL and an MIC (Erwinia caretovora W 9) of 6 µg/mL (≈ 7.53 µM). It also gave an MIC [11] of over 100 µg/mL, an MIC [12] of 0.9 µg/mL (≈ 1.13 µM) and an MIC (Escherichia coli M) of over 100 µg/mL. It also gave an MIC [13] of over 100 µg/mL, an MIC (Escherichia coli U 20) of over 100 µg/mL and an MIC (Aspergilus niger D 184) of over 100 µg/mL. The MIC (Proteus mirabilis H 3) was 50 µg/mL (≈ 62.7 µM), the MIC [14] was 0.3 µg/mL (≈ 0.376 µM) and the MIC [15] was 1 µg/mL (≈ 1.25 µM). The MIC [16] was over 100 µg/mL, the MIC [17] was 1 µg/mL (≈ 1.25 µM) and the MIC [18] was 50 µg/mL (≈ 62.7 µM). The MIC (Salmonella dublin P 43) was over 100 µg/mL and the MIC [19] was 1 µg/mL (≈ 1.25 µM).
